Measurements as given in US20250221960A1, “COMPOSITIONS AND METHODS FOR THE TREATMENT OF DEPRESSION” (Janssen Pharmaceuticals, Inc., priority 2022, published 2025).

How the values were obtained:
subjects with MDD [1] = assay: SHAPS total score (anhedonia), Example 1; assay type: in vivo, human; settings: for SHAPS Total Score Change from Baseline LSMean (SE), MMRM / SHAPS Total Score Effect Size vs placebo / SHAPS Total Score LSMean Difference (SE) Treatment - Placebo, MMRM: 10 mg
Source text: To assess a potential effect on anhedonia, an anhedonia scale may be used. For example, the Snaith-Hamilton Pleasure Scale (SHAPS) analysis is a validated scale for the measurement of anhedonia. The SHAPS is a subject completed scale in which subjects score whether or not they experience pleasure in performing a list of activities or experiences. The SHAPS is a self-reported 14-item instrument, developed for the assessment of hedonic capacity. Subjects score whether they experience pleasure in performing a list of activities or experiences. Subjects can rate the answers as 1-4 where 1 indicates “Definitely agree”, 2 indicates “Agree”, 3 indicates “Disagree” and 4 indicates “Definitely disagree”. The subject's item responses are summed to provide a total score ranging from 14 to 56. A higher total SHAPS score indicates higher levels of current anhedonia. Physician/clinical judgment can be used to assess anhedonia separately or in conjunction with an anhedonia scale.
In some embodiments, the patient has anhedonia. In some embodiments, the patient has moderate anhedonia. In other embodiments, the patient has severe anhedonia. An assessment of moderate or severe anhedonia is typically determined physician/clinical judgment and/or by one or more tests that provide insight into whether a patient has anhedonia. For example, the severity of the anhedonia may be determined using the SHAPS method. In some embodiments, a patient with moderate or severe anhedonia is considered to have a high level of anhedonia. For example, a patient with a SHAPS score of 38 or greater is considered to have moderate to severe anhedonia that can be considered a high level of anhedonia. In some embodiments, a high level of anhedonia is reflected by a SHAPS score of at least about 40, about 42, about 44, about 46, about 48, about 50, about 52, about 54, about 56, about 58, or higher. A patient with mild or no anhedonia would be considered to have a low level of anhedonia that is assessed by physician/clinical judgment and/or one or more tests. For example, a patient with a SHAPS score of less than 38 is considered to have low anhedonia. In certain embodiments, a patient with mild anhedonia may have a SHAPS score of 20 to less than 38, for example, a SHAPS score of 20 to about 36, about 22 to about 36, about 24 to about 36, about 26 to about 36, about 26 to about 34, about 26 to about 32, about 26 to about 30, about 26 to about 28, about 28 to about 36, about 28 to about 36, about 30, to about 36, about 32 to about 36, about 34 to about 36, about 20 to about 34, about 22 to about 34, about 24 to about 34, about 26 to about 32, about 26 to about 30, about 26 to about 28, about 28 to about 36, about 28 to about 34, about 28 to about 32, about 28 to about 30, about 30 to about 36, about 30 to about 34, about 30 to about 32, about 32 to about 36, about 32 to about 34, or about 34 to about 36. Typically, a SHAPS score of less than 20 can be considered to correspond to normal hedonic functioning, and for purposes of this disclosure, would fall into the low category of anhedonia, e.g., a SHAPS score of less than 38.
iii. To investigate the effect of aticaprant versus placebo on depression related anhedonia as assessed by the SHAPS.
The treatment phase consisted of 3 periods. […] There were 11 scheduled visits, including screening.

subjects with MDD [2] = assay: HAM-A6 total score (anxiety), Example 1; assay type: in vivo, human; settings: Treatment Week 6
Source text: v. To investigate the effect of aticaprant on symptoms of anxiety using the HAM-A and on core symptoms of anxiety using the HAM-A6 subscale.
• (i) Depression: Montgomery-Åsberg Depression Rating Scale (MADRS), Clinical Global Impression-Severity (CGI-S), Symptoms of Major Depressive Disorder Scale (SMDDS), and Self-assessment of treatment experience (SATE) • (ii) Anhedonia: Snaith-Hamilton Pleasure Scale (SHAPS) • (iii) Anxiety: Structured Interview Guide for the Hamilton Anxiety scale (SIGH-A) and HAM-A6 • (iv) Effects on Cognition: The Cognitive and Physical Functioning Questionnaire (CPFQ) • (v) Safety assessments

For `Cc1cc(C)cc(C2CCCN2Cc2ccc(Oc3ccc(C(N)=O)cc3F)cc2)c1` (centres unmarked) [aticaprant, 3-fluoro-4-4-2-(3,5-dimethylphenyl) pyrrolidin-1-yl-methylphenoxybenzamide], the “Frequency of Subjects: High Level of Anhedonia (SHAPS Total Score >= 38)” value (subjects with MDD [1]; Treatment Week 6, eITT, N = 59) was 8 (13.56%), the “Frequency of Subjects: Low Level of Anhedonia (20 <= SHAPS Total Score < 38)” value (subjects with MDD [1]; Treatment Week 6, eITT, N = 59) was 48 (81.36%) and the “Frequency of Subjects: No Anhedonia (SHAPS Total Score < 20)” value (subjects with MDD [1]; Treatment Week 6, eITT, N = 59) was 3 (5.08%). The “Frequency of Subjects: High Level of Anhedonia (SHAPS Total Score >= 38)” value (subjects with MDD [1]; Treatment Week 6, fITT, N = 77) was 8 (10.39%), the “Frequency of Subjects: Low Level of Anhedonia (20 <= SHAPS Total Score < 38)” value (subjects with MDD [1]; Treatment Week 6, fITT, N = 77) was 62 (80.52%) and the “Frequency of Subjects: No Anhedonia (SHAPS Total Score < 20)” value (subjects with MDD [1]; Treatment Week 6, fITT, N = 77) was 7 (9.09%). The “SHAPS Total Score Change from Baseline LSMean (SE), MMRM” value (“SHAPS Total Score Change … (SE), MMRM” below) (subjects with MDD [1]; eITT, Treatment Week 1) was −1.7, the “SHAPS Total Score Effect Size vs placebo” value (subjects with MDD [1]; eITT, Treatment Week 1) was −0.15 and the “SHAPS Total Score LSMean Difference (SE) Treatment - Placebo, MMRM” value (subjects with MDD [1]; eITT, Treatment Week 1) was −0.8. The “SHAPS Total Score Change … (SE), MMRM” value (subjects with MDD [1]; eITT, Treatment Week 3) was −3.2, the “SHAPS Total Score Effect Size vs placebo” value (subjects with MDD [1]; eITT, Treatment Week 3) was −0.25 and the “SHAPS Total Score LSMean Difference (SE) Treatment - Placebo, MMRM” value (subjects with MDD [1]; eITT, Treatment Week 3) was −1.4. For the same molecule, the “SHAPS Total Score Change … (SE), MMRM” value (subjects with MDD [1]; eITT, Treatment Week 4) was −4.3, the “SHAPS Total Score Effect Size vs placebo” value (subjects with MDD [1]; eITT, Treatment Week 4) was −0.23 and the “SHAPS Total Score LSMean Difference (SE) Treatment - Placebo, MMRM” value (subjects with MDD [1]; eITT, Treatment Week 4) was −1.4. The “SHAPS Total Score Change … (SE), MMRM” value (subjects with MDD [1]; eITT, Treatment Week 5) was −4.0, the “SHAPS Total Score Effect Size vs placebo” value (subjects with MDD [1]; eITT, Treatment Week 5) was −0.08 and the “SHAPS Total Score LSMean Difference (SE) Treatment - Placebo, MMRM” value (subjects with MDD [1]; eITT, Treatment Week 5) was −0.5. For the same molecule, the “SHAPS Total Score Change … (SE), MMRM” value (subjects with MDD [1]; eITT, Treatment Week 6) was −4.4, the “SHAPS Total Score LSMean Difference (SE) Treatment - Placebo, MMRM” value (subjects with MDD [1]; eITT, Treatment Week 6) was −0.7 and the “SHAPS Total Score Change … (SE), MMRM” value (subjects with MDD [1]; fITT, Treatment Week 1) was −1.9. For the same molecule, the “SHAPS Total Score Effect Size vs placebo” value (subjects with MDD [1]; fITT, Treatment Week 1) was −0.15, the “SHAPS Total Score LSMean Difference (SE) Treatment - Placebo, MMRM” value (subjects with MDD [1]; fITT, Treatment Week 1) was −1.0 and the “SHAPS Total Score Change … (SE), MMRM” value (subjects with MDD [1]; fITT, Treatment Week 3) was −3.1. The “SHAPS Total Score Effect Size vs placebo” value (subjects with MDD [1]; fITT, Treatment Week 3) was −0.20, the “SHAPS Total Score LSMean Difference (SE) Treatment - Placebo, MMRM” value (subjects with MDD [1]; fITT, Treatment Week 3) was −1.4 and the “SHAPS Total Score Change … (SE), MMRM” value (subjects with MDD [1]; fITT, Treatment Week 4) was −4.1. The “SHAPS Total Score Effect Size vs placebo” value (subjects with MDD [1]; fITT, Treatment Week 4) was −0.23, the “SHAPS Total Score LSMean Difference (SE) Treatment - Placebo, MMRM” value (subjects with MDD [1]; fITT, Treatment Week 4) was −1.6 and the “SHAPS Total Score Change … (SE), MMRM” value (subjects with MDD [1]; fITT, Treatment Week 5) was −4.1. For the same molecule, the “SHAPS Total Score Effect Size vs placebo” value (subjects with MDD [1]; fITT, Treatment Week 5) was −0.09, the “SHAPS Total Score LSMean Difference (SE) Treatment - Placebo, MMRM” value (subjects with MDD [1]; fITT, Treatment Week 5) was −0.8 and the “SHAPS Total Score Change … (SE), MMRM” value (subjects with MDD [1]; fITT, Treatment Week 6) was −4.5. The “SHAPS Total Score LSMean Difference (SE) Treatment - Placebo, MMRM” value (subjects with MDD [1]; fITT, Treatment Week 6) was −0.8 and the “improvement in HAMA6 score vs. placebo” value (subjects with MDD [2]) was “greater improvement”.
